Source: patent US20210163453A1, “DERIVATIVES OF PAPAVERINE THAT ARE EFFECTIVE HYPOXIC TUMOR RADIOSENSITIZERS” (Ohio State Innovation Foundation, priority 2018, published 2021)

How the values were obtained:
[1] = test system: EO771 tumors; test: Pimonidazole staining, hypoxic fraction of EO771 tumors; type: in vivo, mice
Protocol: (§1) P values were calculated against thigh muscle with two-tailed two-sample t test. FIG. 3B-3C show normalized tissue oxygenation in EO771 (b) or A549 (c) tumor-bearing mice after injection of 2 mg/kg PPV or vehicle saline (readings taken every minute, and curve is average of 5 traces). P value was analyzed by linear mixed model with autoregressive correlation structure at T=30-40 minutes. […] Values are mean area covered by pimonidazole-positive cells evaluated from 20 images per animal+−SEM. P value was calculated with two-tailed two-sample t test. […] Curves represent mean tumor volumes+−SEM. P values were calculated against XRT with two-tailed two-sample t test.
(§2) Bar graphs represent the mean area covered by pimonidazole-positive cells evaluated from 20 images per animal+−standard error of the mean. P value was calculated against control with two-tailed two-sample t test. […] Mean volumes+−SEM. P values were calculated against XRT with two-tailed two-sample t test. *P<0.05; **P<0.01; ***P<0.001; ****P<0.0001; n.s., not significant.
Pimonidazole staining. […] […] […] The hypoxic fraction of each tumor was quantified by thresholding signal at 50% of the maximum signal on control sections. Area covered by pimonidazole-positive cells was evaluated from 20 images per animal and averaged. Error bars represent the standard deviation.

[2] = test system: EO771 tumors; test: Tumor growth delay of EO771 tumors with radiation (XRT); type: in vivo, mice; conditions: for effect of drug before radiation on tumor growth delay (words): orthotopic EO771, 2 mg/kg 30-40 minutes before 5 Gy; for enhancement of tumor growth delay over XRT alone: orthotopic EO771, 2 mg/kg before 5 Gy
Protocol: as §1
FIGS. 4A-4G show tumor growth before and after radiosensitization with PPV. FIG. 4A-4B show in vitro radiation survival assessment of A549 cell line treated with 10 μm PPV in normoxia (FIG. 4A) and anoxia (FIG. 4B). […] Values represent averaged colony counts+−standard deviation. […] Values are mean tumor volumes+−SEM. […] Values are mean tumor volumes+−SEM. FIG. 4E-4F show tumor growth delay. When tumors reached 4-fold volume increase, groups receiving no treatment or PPV only (FIG. 4E); and XRT only or PPV followed by XRT (FIG. 4F), tumor weights were compared. Values are mean tumor weights+−SEM (n=8). P values were calculated with two-tailed two-sample t test. FIG. 4G are related to FIG. 4E-4F tumor growth delay. Representative images of orthotopic EO771 tumors harvested on day 11 after treatment with XRT (top) or 2 mg/kg PPV followed by XRT (bottom). *P<0.05; **P<0.01; ***P<0.001; ****P<0.0001; n.s., not significant.
as §2
Tumor Growth kinetics. 2×10^6 EO771 or 5×10^6 A549 cells were injected s.c. into the flanks of 6-week old female immunocompetent C57/B6 (EO771) or immunocompromised nu/nu (A549) mice. Caliper measurements of opposing diameter were used to calculate the tumor volumes. Upon reaching […], the tumors were visualized by cone beam CT and treatment plans calculated using SARRP software. X-rays were delivered with a single beam delivering 5 Gy using the Small Animal Research Radiation Platform (SARRP, Xstrahl). Tumor volumes were measured until the post treatment volume increased 3-fold. Error bars represent standard deviation.
Both models of transplanted tumors that were used for the oxygenation experiments of papaverine's effect on radiation response in vivo were investigated. The murine breast cancer line EO771 that is syngeneic with the BL6 strain of mice was used and transplanted it orthotopically into the mammary fat pad of immune-competent mice. Also used was the human A549 lung adenocarcinoma line that was transplanted into the flank of immune-deficient mice. The breast cancers grew to approximately 150 mm^3 and were then randomized to receive either no treatment, a single dose of either 5 Gy, or papaverine at 2 mg/kg followed 30-40 minutes later by 5 Gy.

[3] = test system: A549 cells; test: Seahorse OCR in A549 cells (dose response, IC50, washout); type: cell-based, Human
[4] = test system: MP2 ODDluc tumors; test: ODD-luciferase in vivo oxygen reporter (bioluminescence imaging); parameters: species or system mice; conditions: MP2 ODDluc tumors, 2 and 6 hours after drug
Source text: FIGS. 14A-14E summarize results obtained using ODD-luciferase as an in vivo oxygen reporter. […] (n=3-4, P<0.05).
Use of ODD-luciferase as an in vivo oxygen reporter. We have fused the oxygen dependent degradation domain (ODD) of the HIF1a protein to the luciferase reporter protein. This fusion protein is expressed in tumor cells and is stable and reports well in hypoxia, but is destroyed by cellular machinery when cells are well oxygenated (FIG. 14A). These cells were used to grow tumors in immune-deficient mice and the animals were exposed either 95% oxygen/5% CO2 (carbogen) or medical air and the tumor bioluminescence imaged by IVIS 30 minutes post injection. Increasing oxygen breathing decreases reporter signal (FIG. 14B). These animals were then treated with either papaverine or vehicle (FIG. 14C) or SMV32 or vehicle (FIG. 14E).

[5] = test system: A549 cells; test: Trypan blue cell viability of A549 cells in normoxia and hypoxia; type: cell-based, Human; conditions: 100 μM papaverine, 72 h
Protocol: FIGS. 2A-2D are OCR measurements and cell viability assessments. FIG. 2A-2B are representative of OCR measurement in competition assay between PPV and complex I inhibitors piericidin A (FIG. 2A) and capsaicin (FIG. 2B). Values represent the means+−SD. FIGS. 2C-2D show trypan blue cell viability assessment (of n=3) of A549 cells treated with 100 μM papaverine or 1 μM rotenone in normoxia (FIG. 2C) and hypoxia (FIG. 2D) (T=72 h). Bar charts represent mean of viable cells in duplicates+−standard deviation.
Experimental: Cell lines. All cell lines were purchased from the American Type Culture Collection (ATCC) and grown DMEM (Corning) supplemented with 10% FBS (Seradigm) and 1% Penicillin/Streptomycin (Fisher Bioreagents) at 37° C. in 5% CO2. Cells were treated with inhibitors papaverine hydrochloride (Sigma-Aldrich), rotenone (Sigma-Aldrich), piericidin A (Santa Cruz), capsaicin (Sigma-Aldrich), antimycin A (Sigma-Aldrich) and succinic acid disodium salt (Sigma-Aldrich). Cell viability was assessed by trypan blue exclusion.

Compound | decrease in the hypoxic fraction of tumors ([1]; 2 mg/kg PPV for one hour, pimonidazole) | effect of drug before radiation on tumor growth delay (words) [2] | effect of drug before radiation on tumor growth delay (words) ([2]; listed as papaverine) | enhancement of tumor growth delay over XRT alone [2] | enhancement of tumor growth delay over XRT alone ([2]; listed as papaverine) | effect of single dose of drug alone on tumor growth ([2]; orthotopic EO771, 2 mg/kg, no XRT) | time for OCR to return to baseline after drug removal (washout) ([3]; 10 μM PPV, media replaced) | dose needed relative to rotenone for similar OCR inhibition ([3]; dose response analysis, A549) | ODD-luciferase reporter signal [4] | cellular toxicity in normoxia or hypoxia in vitro [5] | tumor hypoxia by pimonidazole staining ([1]; orthotopic EO771, immune-competent mice, 2 mg per kg) | growth delay compared to radiation alone ([2]; heterotopic EO771 flank tumors, nude mice, 2 mg/kg 35 minutes prior to 5 Gy) | IC50 ([3]; Homo sapiens, A549 cells by Seahorse, n=5 replicates, read-out: mitochondrial IC50 (OCR IC50))
COc1ccc(Cc2nccc3cc(OC)c(OC)cc23)cc1OC [PPV, papaverine] | 72% | significantly adds to tumor growth delay | significantly enhanced the antitumor effects of the radiation | 2-4 fold | 1.9-2.8 fold | no significant effect | less than one and one | 100 × higher dose than rotenone | significant decrease in signal | no cellular toxicity | – | – | –
COc1cc2ccnc(Cc3cccc4ccccc34)c2cc1OC [SMV-32] | – | – | – | – | – | – | – | – | significant decrease in signal | – | decreased tumor hypoxia | activity that is comparable to papaverine | 7.4 µM
